Oligonucleotides are given in HELM: sugar(base)linkage, 5' to 3'; d 2'-deoxyribose, r ribose, m 2'-O-methylribose, p phosphate. ss, as = sense and antisense strand
Also: test concentration or dose not given here.

This data set deals with TMEM63B. Nature of the data set: reporter assay of Huesken 2005. The conditions noted are these: siRNA.
For “RNA1{r(G)p.r(U)p.r(A)p.r(C)p.r(A)p.r(U)p.r(G)p.r(A)p.r(U)p.r(C)p.r(C)p.r(G)p.r(G)p.r(C)p.r(U)p.r(C)p.r(U)p.r(G)p.r(C)p.d(T)p.d(T)}|RNA2{r(G)p.r(C)p.r(A)p.r(G)p.r(A)p.r(G)p.r(C)p.r(C)p.r(G)p.r(G)p.r(A)p.r(U)p.r(C)p.r(A)p.r(U)p.r(G)p.r(U)p.r(A)p.r(C)p.d(A)p.d(T)}$$$RNA1{StrandType:ss}|RNA2{StrandType:as}$”, the normalised inhibition (eCFP-eYFP dual reporter) stood at 46.8%.

Take “RNA1{r(G)p.r(U)p.r(A)p.r(C)p.r(U)p.r(A)p.r(C)p.r(A)p.r(C)p.r(A)p.r(A)p.r(A)p.r(G)p.r(C)p.r(U)p.r(G)p.r(G)p.r(A)p.r(G)p.d(T)p.d(T)}|RNA2{r(C)p.r(U)p.r(C)p.r(C)p.r(A)p.r(G)p.r(C)p.r(U)p.r(U)p.r(U)p.r(G)p.r(U)p.r(G)p.r(U)p.r(A)p.r(G)p.r(U)p.r(A)p.r(C)p.d(T)p.d(C)}$$$RNA1{StrandType:ss}|RNA2{StrandType:as}$”: the normalised inhibition (eCFP-eYFP dual reporter) turned out to be 58.4%.

“RNA1{r(G)p.r(U)p.r(A)p.r(U)p.r(C)p.r(U)p.r(G)p.r(C)p.r(U)p.r(G)p.r(C)p.r(U)p.r(C)p.r(A)p.r(C)p.r(C)p.r(G)p.r(U)p.r(C)p.d(T)p.d(T)}|RNA2{r(G)p.r(A)p.r(C)p.r(G)p.r(G)p.r(U)p.r(G)p.r(A)p.r(G)p.r(C)p.r(A)p.r(G)p.r(C)p.r(A)p.r(G)p.r(A)p.r(U)p.r(A)p.r(C)p.d(A)p.d(G)}$$$RNA1{StrandType:ss}|RNA2{StrandType:as}$” returned a normalised inhibition (eCFP-eYFP dual reporter) of 65.4%.

On to “RNA1{r(G)p.r(U)p.r(C)p.r(C)p.r(C)p.r(C)p.r(A)p.r(A)p.r(A)p.r(U)p.r(C)p.r(U)p.r(G)p.r(C)p.r(G)p.r(A)p.r(A)p.r(A)p.r(U)p.d(T)p.d(T)}|RNA2{r(A)p.r(U)p.r(U)p.r(U)p.r(C)p.r(G)p.r(C)p.r(A)p.r(G)p.r(A)p.r(U)p.r(U)p.r(U)p.r(G)p.r(G)p.r(G)p.r(G)p.r(A)p.r(C)p.d(A)p.d(G)}$$$RNA1{StrandType:ss}|RNA2{StrandType:as}$”, for which the normalised inhibition (eCFP-eYFP dual reporter) amounted to 82%.

Turning to “RNA1{r(G)p.r(U)p.r(C)p.r(C)p.r(U)p.r(U)p.r(U)p.r(C)p.r(A)p.r(G)p.r(C)p.r(G)p.r(G)p.r(C)p.r(A)p.r(C)p.r(A)p.r(U)p.r(C)p.d(T)p.d(T)}|RNA2{r(G)p.r(A)p.r(U)p.r(G)p.r(U)p.r(G)p.r(C)p.r(C)p.r(G)p.r(C)p.r(U)p.r(G)p.r(A)p.r(A)p.r(A)p.r(G)p.r(G)p.r(A)p.r(C)p.d(A)p.d(G)}$$$RNA1{StrandType:ss}|RNA2{StrandType:as}$”, the normalised inhibition (eCFP-eYFP dual reporter) was determined as 65.1%.

As for “RNA1{r(G)p.r(U)p.r(C)p.r(U)p.r(C)p.r(A)p.r(C)p.r(C)p.r(U)p.r(C)p.r(U)p.r(G)p.r(U)p.r(C)p.r(U)p.r(C)p.r(C)p.r(A)p.r(G)p.d(T)p.d(T)}|RNA2{r(C)p.r(U)p.r(G)p.r(G)p.r(A)p.r(G)p.r(A)p.r(C)p.r(A)p.r(G)p.r(A)p.r(G)p.r(G)p.r(U)p.r(G)p.r(A)p.r(G)p.r(A)p.r(C)p.d(G)p.d(C)}$$$RNA1{StrandType:ss}|RNA2{StrandType:as}$”, the normalised inhibition (eCFP-eYFP dual reporter) is 88.6%.

Substance “RNA1{r(G)p.r(U)p.r(C)p.r(U)p.r(C)p.r(C)p.r(A)p.r(G)p.r(C)p.r(U)p.r(C)p.r(C)p.r(G)p.r(U)p.r(U)p.r(G)p.r(A)p.r(C)p.r(U)p.d(T)p.d(T)}|RNA2{r(A)p.r(G)p.r(U)p.r(C)p.r(A)p.r(A)p.r(C)p.r(G)p.r(G)p.r(A)p.r(G)p.r(C)p.r(U)p.r(G)p.r(G)p.r(A)p.r(G)p.r(A)p.r(C)p.d(A)p.d(G)}$$$RNA1{StrandType:ss}|RNA2{StrandType:as}$” registered a normalised inhibition (eCFP-eYFP dual reporter) of 69.5%.

The substance “RNA1{r(G)p.r(U)p.r(G)p.r(A)p.r(A)p.r(U)p.r(G)p.r(A)p.r(G)p.r(A)p.r(A)p.r(G)p.r(C)p.r(C)p.r(U)p.r(C)p.r(U)p.r(U)p.r(G)p.d(T)p.d(T)}|RNA2{r(C)p.r(A)p.r(A)p.r(G)p.r(A)p.r(G)p.r(G)p.r(C)p.r(U)p.r(U)p.r(C)p.r(U)p.r(C)p.r(A)p.r(U)p.r(U)p.r(C)p.r(A)p.r(C)p.d(C)p.d(T)}$$$RNA1{StrandType:ss}|RNA2{StrandType:as}$” had a normalised inhibition (eCFP-eYFP dual reporter) of 69.3%.

“RNA1{r(G)p.r(U)p.r(G)p.r(G)p.r(U)p.r(G)p.r(G)p.r(C)p.r(C)p.r(G)p.r(C)p.r(G)p.r(C)p.r(C)p.r(C)p.r(A)p.r(U)p.r(C)p.r(C)p.d(T)p.d(T)}|RNA2{r(G)p.r(G)p.r(A)p.r(U)p.r(G)p.r(G)p.r(G)p.r(C)p.r(G)p.r(C)p.r(G)p.r(G)p.r(C)p.r(C)p.r(A)p.r(C)p.r(C)p.r(A)p.r(C)p.d(C)p.d(T)}$$$RNA1{StrandType:ss}|RNA2{StrandType:as}$” yielded a normalised inhibition (eCFP-eYFP dual reporter) of 46.3%.

Turning to “RNA1{r(G)p.r(U)p.r(G)p.r(G)p.r(U)p.r(U)p.r(G)p.r(U)p.r(G)p.r(G)p.r(G)p.r(C)p.r(G)p.r(U)p.r(C)p.r(C)p.r(U)p.r(C)p.r(U)p.d(T)p.d(T)}|RNA2{r(A)p.r(G)p.r(A)p.r(G)p.r(G)p.r(A)p.r(C)p.r(G)p.r(C)p.r(C)p.r(C)p.r(A)p.r(C)p.r(A)p.r(A)p.r(C)p.r(C)p.r(A)p.r(C)p.d(C)p.d(A)}$$$RNA1{StrandType:ss}|RNA2{StrandType:as}$”, the normalised inhibition (eCFP-eYFP dual reporter) worked out at 53.5%.

Substance “RNA1{r(U)p.r(A)p.r(A)p.r(A)p.r(G)p.r(G)p.r(A)p.r(U)p.r(G)p.r(A)p.r(U)p.r(G)p.r(A)p.r(G)p.r(A)p.r(U)p.r(C)p.r(C)p.r(G)p.d(T)p.d(T)}|RNA2{r(C)p.r(G)p.r(G)p.r(A)p.r(U)p.r(C)p.r(U)p.r(C)p.r(A)p.r(U)p.r(C)p.r(A)p.r(U)p.r(C)p.r(C)p.r(U)p.r(U)p.r(U)p.r(A)p.d(T)p.d(C)}$$$RNA1{StrandType:ss}|RNA2{StrandType:as}$” gave a normalised inhibition (eCFP-eYFP dual reporter) of 24.7%.

For “RNA1{r(U)p.r(A)p.r(C)p.r(C)p.r(U)p.r(C)p.r(A)p.r(G)p.r(U)p.r(G)p.r(C)p.r(C)p.r(C)p.r(A)p.r(C)p.r(A)p.r(A)p.r(C)p.r(U)p.d(T)p.d(T)}|RNA2{r(A)p.r(G)p.r(U)p.r(U)p.r(G)p.r(U)p.r(G)p.r(G)p.r(G)p.r(C)p.r(A)p.r(C)p.r(U)p.r(G)p.r(A)p.r(G)p.r(G)p.r(U)p.r(A)p.d(T)p.d(T)}$$$RNA1{StrandType:ss}|RNA2{StrandType:as}$”, the normalised inhibition (eCFP-eYFP dual reporter) was determined as 51.3%.

Substance “RNA1{r(U)p.r(C)p.r(A)p.r(C)p.r(C)p.r(A)p.r(C)p.r(C)p.r(A)p.r(U)p.r(G)p.r(G)p.r(A)p.r(C)p.r(A)p.r(A)p.r(G)p.r(U)p.r(U)p.d(T)p.d(T)}|RNA2{r(A)p.r(A)p.r(C)p.r(U)p.r(U)p.r(G)p.r(U)p.r(C)p.r(C)p.r(A)p.r(U)p.r(G)p.r(G)p.r(U)p.r(G)p.r(G)p.r(U)p.r(G)p.r(A)p.d(T)p.d(G)}$$$RNA1{StrandType:ss}|RNA2{StrandType:as}$” registered a normalised inhibition (eCFP-eYFP dual reporter) of 67.7%.

“RNA1{r(U)p.r(C)p.r(A)p.r(C)p.r(C)p.r(U)p.r(G)p.r(C)p.r(C)p.r(C)p.r(C)p.r(A)p.r(U)p.r(C)p.r(A)p.r(U)p.r(C)p.r(G)p.r(U)p.d(T)p.d(T)}|RNA2{r(A)p.r(C)p.r(G)p.r(A)p.r(U)p.r(G)p.r(A)p.r(U)p.r(G)p.r(G)p.r(G)p.r(G)p.r(C)p.r(A)p.r(G)p.r(G)p.r(U)p.r(G)p.r(A)p.d(T)p.d(A)}$$$RNA1{StrandType:ss}|RNA2{StrandType:as}$” had a normalised inhibition (eCFP-eYFP dual reporter) of 73%.

“RNA1{r(U)p.r(C)p.r(A)p.r(G)p.r(A)p.r(G)p.r(G)p.r(U)p.r(G)p.r(G)p.r(A)p.r(C)p.r(G)p.r(G)p.r(G)p.r(G)p.r(A)p.r(U)p.r(G)p.d(T)p.d(T)}|RNA2{r(C)p.r(A)p.r(U)p.r(C)p.r(C)p.r(C)p.r(C)p.r(G)p.r(U)p.r(C)p.r(C)p.r(A)p.r(C)p.r(C)p.r(U)p.r(C)p.r(U)p.r(G)p.r(A)p.d(G)p.d(T)}$$$RNA1{StrandType:ss}|RNA2{StrandType:as}$” had a normalised inhibition (eCFP-eYFP dual reporter) of 29.5%.

Take “RNA1{r(U)p.r(C)p.r(A)p.r(U)p.r(C)p.r(A)p.r(U)p.r(C)p.r(A)p.r(C)p.r(C)p.r(A)p.r(C)p.r(C)p.r(A)p.r(U)p.r(G)p.r(G)p.r(A)p.d(T)p.d(T)}|RNA2{r(U)p.r(C)p.r(C)p.r(A)p.r(U)p.r(G)p.r(G)p.r(U)p.r(G)p.r(G)p.r(U)p.r(G)p.r(A)p.r(U)p.r(G)p.r(A)p.r(U)p.r(G)p.r(A)p.d(T)p.d(G)}$$$RNA1{StrandType:ss}|RNA2{StrandType:as}$”: the normalised inhibition (eCFP-eYFP dual reporter) turned out to be 79.2%.

The substance “RNA1{r(U)p.r(C)p.r(A)p.r(U)p.r(G)p.r(A)p.r(C)p.r(C)p.r(U)p.r(A)p.r(C)p.r(A)p.r(G)p.r(U)p.r(A)p.r(U)p.r(C)p.r(A)p.r(C)p.d(T)p.d(T)}|RNA2{r(G)p.r(U)p.r(G)p.r(A)p.r(U)p.r(A)p.r(C)p.r(U)p.r(G)p.r(U)p.r(A)p.r(G)p.r(G)p.r(U)p.r(C)p.r(A)p.r(U)p.r(G)p.r(A)p.d(C)p.d(C)}$$$RNA1{StrandType:ss}|RNA2{StrandType:as}$” gave a normalised inhibition (eCFP-eYFP dual reporter) of 60.2%.

On to “RNA1{r(U)p.r(C)p.r(C)p.r(A)p.r(U)p.r(C)p.r(C)p.r(G)p.r(A)p.r(G)p.r(G)p.r(C)p.r(U)p.r(U)p.r(C)p.r(A)p.r(U)p.r(C)p.r(U)p.d(T)p.d(T)}|RNA2{r(A)p.r(G)p.r(A)p.r(U)p.r(G)p.r(A)p.r(A)p.r(G)p.r(C)p.r(C)p.r(U)p.r(C)p.r(G)p.r(G)p.r(A)p.r(U)p.r(G)p.r(G)p.r(A)p.d(G)p.d(A)}$$$RNA1{StrandType:ss}|RNA2{StrandType:as}$”, for which the normalised inhibition (eCFP-eYFP dual reporter) was 65.3%.

Regarding “RNA1{r(U)p.r(C)p.r(C)p.r(G)p.r(A)p.r(G)p.r(G)p.r(C)p.r(U)p.r(U)p.r(C)p.r(A)p.r(U)p.r(C)p.r(U)p.r(G)p.r(G)p.r(U)p.r(G)p.d(T)p.d(T)}|RNA2{r(C)p.r(A)p.r(C)p.r(C)p.r(A)p.r(G)p.r(A)p.r(U)p.r(G)p.r(A)p.r(A)p.r(G)p.r(C)p.r(C)p.r(U)p.r(C)p.r(G)p.r(G)p.r(A)p.d(T)p.d(G)}$$$RNA1{StrandType:ss}|RNA2{StrandType:as}$”, the normalised inhibition (eCFP-eYFP dual reporter) worked out at 29.2%.

Turning to “RNA1{r(U)p.r(C)p.r(C)p.r(U)p.r(A)p.r(G)p.r(C)p.r(U)p.r(C)p.r(C)p.r(C)p.r(A)p.r(C)p.r(G)p.r(U)p.r(C)p.r(U)p.r(A)p.r(U)p.d(T)p.d(T)}|RNA2{r(A)p.r(U)p.r(A)p.r(G)p.r(A)p.r(C)p.r(G)p.r(U)p.r(G)p.r(G)p.r(G)p.r(A)p.r(G)p.r(C)p.r(U)p.r(A)p.r(G)p.r(G)p.r(A)p.d(A)p.d(C)}$$$RNA1{StrandType:ss}|RNA2{StrandType:as}$”, the normalised inhibition (eCFP-eYFP dual reporter) stood at 79.7%.

The record behind these values is the OligoGym collection.
